Structures can show the parent of a compound that is named as a salt.
Tested on: β-lactamase producing bacteria
Test: Test Example 1: MIC of meropenem (MEPM) combined with test compound at fixed 4 μg/mL, broth microdilution
Format: cell-based
Conditions: relative to MEPM alone
Protocol: Test Example 1: Evaluation of Minimum Inhibitory Concentration (MIC) of MEPM Against β-Lactamase Producing Bacteria
To evaluate the β-lactamase inhibitory activity of test compounds, the effect of combination of a test compound and a β-lactam agent against β-lactamase producing bacteria was evaluated. Meropenem (MEPM) was used as a β-lactam antimicrobial agent. The minimum inhibitory concentration (MIC) of MEPM against β-lactamase producing bacteria when a test compound was added at a fixed concentration (4 μg/mL) was measured by broth microdilution method (common ratio: 2). MIC of MEPM decreasing to less than 1/32 in combination with a test compound is indicated by A, decreasing from 1/32 to 1/16 is indicated by B, decreasing from ⅛ to ¼ is indicated by C, and decreasing to ½ or others are indicated by D. “-” represents untested cases.

SMILES	Decrease of MIC of MEPM in combination with a test compound, E. coli ATCC BAA-2340 (KPC)	Decrease of MIC of MEPM in combination with a test compound, K. pneumoniae ATCC BAA-2344 (KPC)	Decrease of MIC of MEPM in combination with a test compound, K. pneumoniae ATCC BAA-2524 (OXA-48)
NC(C(=O)N1CC(Oc2ccc3c(c2C(=O)O)O[B-](O)(O)CC3)C1)c1cnc[nH]1 (stereo not drawn) [Example 19, 8-({1-[amino(1H-imidazol-5-yl)acetyl]azetidin-3-yl}oxy)-4,4-dihydroxy-5-oxa-4-boranuidabicyclo[4.4.0]deca-l(6),7,9-triene-7-carboxylic acid disodium salt]	A (MIC of MEPM decreasing to less than 1/32 in combination with a test compound is indicated by A)	A (MIC of MEPM decreasing to less than 1/32 in combination with a test compound is indicated by A)	B (decreasing from 1/32 to 1/16 is indicated by B)
O=C(O)c1c(OC2CN(C(=O)Cc3ccccc3)C2)ccc2c1O[B-](O)(O)CC2 [Example 20, 4,4-dihydroxy-8-{[1-(phenylacetyl)azetidin-3-yl]oxy}-5-oxa-4-boranuidabicyclo[4.4.0]deca-l(6),7,9-triene-7-carboxylic acid disodium salt]	A (MIC of MEPM decreasing to less than 1/32 in combination with a test compound is indicated by A)	B (decreasing from 1/32 to 1/16 is indicated by B)	B (decreasing from 1/32 to 1/16 is indicated by B)
O=C(O)c1c(OC2CN(C(=O)CCc3ccccc3)C2)ccc2c1O[B-](O)(O)CC2 [Example 21, 4,4-dihydroxy-8-{[1-(3-phenylpropanoyl)azetidin-3-yl]oxy}-5-oxa-4-boranuidabicyclo[4.4.0]deca-l(6),7,9-triene-7-carboxylic acid disodium salt]	A (MIC of MEPM decreasing to less than 1/32 in combination with a test compound is indicated by A)	B (decreasing from 1/32 to 1/16 is indicated by B)	C (decreasing from ⅛ to ¼ is indicated by C)
O=C(O)c1c(OC2CN(C(=O)Cn3ccnc3)C2)ccc2c1O[B-](O)(O)CC2 [Example 22, 4,4-dihydroxy-8-({1-[(1H-imidazol-1-yl)acetyl]azetidin-3-yl}oxy)-5-oxa-4-boranuidabicyclo[4.4.0]deca-l(6),7,9-triene-7-carboxylic acid disodium salt]	A (MIC of MEPM decreasing to less than 1/32 in combination with a test compound is indicated by A)	A (MIC of MEPM decreasing to less than 1/32 in combination with a test compound is indicated by A)	B (decreasing from 1/32 to 1/16 is indicated by B)
O=C(O)c1c(OC2CN(C(=O)Cn3cnnn3)C2)ccc2c1O[B-](O)(O)CC2 [Example 23, 4,4-dihydroxy-8-({1-[(1H-tetrazol-1-yl)acetyl]azetidin-3-yl}oxy)-5-oxa-4-boranuidabicyclo[4.4.0]deca-l(6),7,9-triene-7-carboxylic acid disodium salt]		A (MIC of MEPM decreasing to less than 1/32 in combination with a test compound is indicated by A)	B (decreasing from 1/32 to 1/16 is indicated by B)
O=C(O)c1c(OC2CN(C(=O)Cc3nn[nH]n3)C2)ccc2c1O[B-](O)(O)CC2 [Example 24, 4,4-dihydroxy-8-({1-[(2H-tetrazol-5-yl)acetyl]azetidin-3-yl}oxy)-5-oxa-4-boranuidabicyclo[4.4.0]deca-l(6),7,9-triene-7-carboxylic acid disodium salt]	A (MIC of MEPM decreasing to less than 1/32 in combination with a test compound is indicated by A)	A (MIC of MEPM decreasing to less than 1/32 in combination with a test compound is indicated by A)	B (decreasing from 1/32 to 1/16 is indicated by B)
N[C@H](Cc1ccccc1)C(=O)N1CC(Oc2ccc3c(c2C(=O)O)O[B-](O)(O)CC3)C1 [Example 25, 4,4-dihydroxy-8-[(1-D-phenylalanylazetidin-3-yl)oxy]-5-oxa-4-boranuidabicyclo[4.4.0]deca-l(6),7,9-triene-7-carboxylic acid disodium salt]	A (MIC of MEPM decreasing to less than 1/32 in combination with a test compound is indicated by A)	A (MIC of MEPM decreasing to less than 1/32 in combination with a test compound is indicated by A)	B (decreasing from 1/32 to 1/16 is indicated by B)
N[C@H](Cc1ccc(O)cc1)C(=O)N1CC(Oc2ccc3c(c2C(=O)O)O[B-](O)(O)CC3)C1 [Example 26, 4,4-dihydroxy-8-[(1-D-tyrosylazetidin-3-yl)oxy]-5-oxa-4-boranuidabicyclo[4.4.0]deca-l(6),7,9-triene-7-carboxylic acid disodium salt]	A (MIC of MEPM decreasing to less than 1/32 in combination with a test compound is indicated by A)	A (MIC of MEPM decreasing to less than 1/32 in combination with a test compound is indicated by A)	A (MIC of MEPM decreasing to less than 1/32 in combination with a test compound is indicated by A)
N[C@H](Cc1cnc[nH]1)C(=O)N1CC(Oc2ccc3c(c2C(=O)O)O[B-](O)(O)CC3)C1 [Example 27, 8-[(1-D-histidylazetidin-3-yl)oxy]-4,4-dihydroxy-5-oxa-4-boranuidabicyclo[4.4.0]deca-l(6),7,9-triene-7-carboxylic acid disodium salt]		A (MIC of MEPM decreasing to less than 1/32 in combination with a test compound is indicated by A)	B (decreasing from 1/32 to 1/16 is indicated by B)
CC(C)[C@@H](N)C(=O)N1CC(Oc2ccc3c(c2C(=O)O)O[B-](O)(O)CC3)C1 [Example 28, 4,4-dihydroxy-8-[(1-D-valylazetidin-3-yl)oxy]-5-oxa-4-boranuidabicyclo[4.4.0]deca-l(6),7,9-triene-7-carboxylic acid disodium salt]	A (MIC of MEPM decreasing to less than 1/32 in combination with a test compound is indicated by A)	A (MIC of MEPM decreasing to less than 1/32 in combination with a test compound is indicated by A)	B (decreasing from 1/32 to 1/16 is indicated by B)
N[C@@H](Cc1cnc[nH]1)C(=O)N1CC(Oc2ccc3c(c2C(=O)O)O[B-](O)(O)CC3)C1 [Example 29, 8-[(1-L-histidylazetidin-3-yl)oxy]-4,4-dihydroxy-5-oxa-4-boranuidabicyclo[4.4.0]deca-l(6),7,9-triene-7-carboxylic acid disodium salt]		A (MIC of MEPM decreasing to less than 1/32 in combination with a test compound is indicated by A)	B (decreasing from 1/32 to 1/16 is indicated by B)
CCN1CCN(C(=O)N[C@@H](C(=O)N2CC(Oc3ccc4c(c3C(=O)O)O[B-](O)(O)CC4)C2)c2ccccc2)C(=O)C1=O [Example 30, 8-[(1-{(2R)-2-[(4-ethyl-2,3-dioxopiperazine-1-carbonyl)amino]-2-phenylacetyl}azetidin-3-yl)oxy]-4,4-dihydroxy-5-oxa-4-boranuidabicyclo[4.4.0]deca-l(6),7,9-triene-7-carboxylic acid disodium salt]		A (MIC of MEPM decreasing to less than 1/32 in combination with a test compound is indicated by A)	B (decreasing from 1/32 to 1/16 is indicated by B)
O=C(O)c1c(OC2CN(C(=O)[C@H]3CCCN3)C2)ccc2c1O[B-](O)(O)CC2 [Example 31, 4,4-dihydroxy-8-[(1-D-prolylazetidin-3-yl)oxy]-5-oxa-4-boranuidabicyclo[4.4.0]deca-l(6),7,9-triene-7-carboxylic acid disodium salt]		A (MIC of MEPM decreasing to less than 1/32 in combination with a test compound is indicated by A)	B (decreasing from 1/32 to 1/16 is indicated by B)
O=C(O)c1c(OC2CN(C(=O)[C@@H]3CCCN3)C2)ccc2c1O[B-](O)(O)CC2 [Example 32, 4,4-dihydroxy-8-[(1-L-prolylazetidin-3-yl)oxy]-5-oxa-4-boranuidabicyclo[4.4.0]deca-l(6),7,9-triene-7-carboxylic acid disodium salt]		A (MIC of MEPM decreasing to less than 1/32 in combination with a test compound is indicated by A)	B (decreasing from 1/32 to 1/16 is indicated by B)
